Read-outs that look alike come from different tables or passages of the source.
Target: T1, human orexin type 2 receptor (hOX2R) (Homo sapiens, UniProt O43614)
T1 construct: expressed in transfected cells
T1 sequence (O43614 1-444): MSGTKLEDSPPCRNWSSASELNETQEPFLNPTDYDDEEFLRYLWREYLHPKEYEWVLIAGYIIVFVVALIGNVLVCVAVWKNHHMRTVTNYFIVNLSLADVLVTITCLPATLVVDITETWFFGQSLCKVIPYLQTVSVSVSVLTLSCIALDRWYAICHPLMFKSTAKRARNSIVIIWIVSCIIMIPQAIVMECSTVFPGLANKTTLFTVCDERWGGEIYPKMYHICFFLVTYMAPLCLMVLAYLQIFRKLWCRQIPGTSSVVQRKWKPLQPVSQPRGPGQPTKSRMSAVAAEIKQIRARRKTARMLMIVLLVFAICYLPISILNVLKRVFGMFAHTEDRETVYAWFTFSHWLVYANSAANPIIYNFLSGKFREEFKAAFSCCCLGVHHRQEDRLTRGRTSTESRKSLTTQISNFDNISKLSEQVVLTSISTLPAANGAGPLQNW
Experiment: Measurement of orexin type 2 receptor agonist activity (FLIPR calcium fluorescence)
Assay type: cell-based
Conditions: for Emax: CHO, read-out: hOx2 Emax (%)
Outline: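 Agonism was read as fluorescence in cells stably expressing human OX2R. E. is the response at 10 μM relative to orexin A as full agonist (100%).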

[1] = CHO cells expressing hOX2R, FLIPR calcium fluorescence, read-out: hOx2 pEC50 (converted)
[2] = CHO cells expressing hOX2R, FLIPR calcium fluorescence

| Compound | EC50 [1] | Emax [2] | other results |
| --- | --- | --- | --- |
| C[C@@]1(C(=O)N2CC3(CC3)[C@H](NS(=O)(=O)CF)[C@@H]2Cc2cccc(-c3ccccc3)c2F)CCO1 [Compound 203, 1-fluoro-N-((6S,7S)-6-((2-fluoro-[1,1′-biphenyl]-3-yl)methyl)-5-((S)-2-methyloxetane-2-carbonyl)-5-azaspiro[2.4]heptan-7-yl)methanesulfonamide] | 1 to 10 nM | 90 to 100% |  |
| CCNC(=O)N1CC2(CC2)[C@H](NS(C)(=O)=O)[C@@H]1Cc1cccc(-c2ccccc2)c1OC [Compound 54, (6S,7S)—N-ethyl-6-((2-methoxy-[1,1′-biphenyl]-3-yl)methyl)-7-(methylsulfonamido)-5-azaspiro[2.4]heptane-5-carboxamide] |  |  | Emax: 80 to 90%; EC50 (hOx2 pEC50, CHO cells expressing hOX2R, FLIPR calcium fluorescence): 1 to 10 nM |
| CCS(=O)(=O)NC1C(Cc2cccc(-c3ccccc3)c2)N(C(=O)C(C)C)CC12CC2 (racemic) [Compound 7, N-(6-([1,1-biphenyl]-3-ylmethyl)-5-isobutyryl-5-azaspiro[2.4]heptan-7-yl)ethanesulfonamide] | 1 to 10 nM | 90 to 100% |  |
| CC(F)C(=O)N1CC2(CC2)C(NS(C)(=O)=O)C1Cc1cccc(-c2ccccc2)c1 (single isomer, unassigned) [Compound 1, N-(6-([1,1′-biphenyl]-3-ylmethyl)-5-(2-fluoropropanoyl)-5-azaspiro[2.4]heptan-7-yl)methanesulfonamide] | 10 to 100 nM | 70 to 80% |  |
| CS(=O)(=O)N[C@@H]1[C@H](Cc2cccc(-c3ccccc3)c2)N(C(=O)C23CC2C3)CC12CC2 (stereo partly drawn) [Compound 113, N-((6S,7S)-6-([1,1′-biphenyl]-3-ylmethyl)-5-(bicyclo[1.1.0]butane-1-carbonyl)-5-azaspiro[2.4]heptan-7-yl)methanesulfonamide] | 1 to 10 nM | 90 to 100% |  |
| N-((6S,7S)-6-((2-fluoro-[1,1′- biphenyl]-3-yl)methyl)-5-((R)- 2-(fluoromethyl)azetidine-1- carbonyl)-5- azaspiro[2.4]heptan-7- yl)metbanesulfonamide [Compound 314] |  |  | hOx2 Emax (%) [2]: A (Emax ranging between 90 and 100); hOx2 pEC50 [2]: **** (pEC50 ranging between 8.0 and 9.0) |
| CC[C@@H](O)C(=O)N1CC2(CC2)C(NS(C)(=O)=O)C1Cc1cccc(-c2ccccc2)c1 (mixture of isomers) [Compound 37, N-(6-([1,1′-biphenyl]-3-ylmethyl)-5-((R)-2-hydroxybutanoyl)-5-azaspiro[2.4]heptan-7-yl)methanesulfonamide] | 10 to 100 nM | 90 to 100% |  |

Second part, led by results:

| EC50 [1] | Emax [2] | Compound | other results |
| --- | --- | --- | --- |
| 0.0794 to 1 nM | 90 to 100% | O=C([C@H](O)CF)N1CC2(CC2)[C@H](NS(=O)(=O)C(F)F)[C@@H]1Cc1cccc(-c2cc(F)cc(F)c2)c1F [Compound 392, 1,1-difluoro-N-((6S,7S)-5-((S)-3-fluoro-2-hydroxypropanoyl)-6-((2,3′,5′-trifluoro-[1,1′-biphenyl]-3-yl)methyl)-5-azaspiro[2.4]heptan-7-yl)methanesulfonamide] |  |
| 0.0794 to 1 nM | 90 to 100% | O=C(NCC(F)F)N1CC2(CC2)[C@H](NS(=O)(=O)CF)[C@@H]1Cc1cccc(-c2cc(F)cc(F)c2)c1F [Compound 411] |  |
| 1 to 10 nM | 90 to 100% | [2H]c1c([2H])c([2H])c(-c2cc(F)cc(C[C@H]3[C@@H](NS(C)(=O)=O)C4(CC4)CN3C(=O)[C@H]3CCO3)c2F)c([2H])c1[2H] [Compound 348, N-((6S,7S)-6-((2,5-difluoro-[1,1′-biphenyl]-3-yl-2′,3′,4′,5′,6′-d5)methyl)-5-((R)-oxetane-2-carbonyl)-5-azaspiro[2.4]heptan-7-yl)methanesulfonamide] |  |
| 1 to 10 nM | 90 to 100% | O=C(NCC(F)F)N1CC2(CC2)[C@H](NS(=O)(=O)C(F)F)[C@@H]1Cc1cc(F)cc(-c2ccccc2)c1F [Compound 389, (6S,7S)-6-((2,5-difluoro-[1,1′-biphenyl]-3-yl)methyl)-N-(2,2-difluoroethyl)-7-((difluoromethyl)sulfonamido)-5-azaspiro[2.4]heptane-5-carboxamide] |  |
